In patent publication US20110195910A1, “USE OF TOCOTRIENOL COMPOSITION FOR THE PREVENTION OF CANCER” (DAVOS LIFE SCIENCE PTE. LTD., priority 2008, published 2011):

How the values were obtained:
MDA-MB-231 cells = experiment: Flow cytometry, western blotting and RT-PCR, MDA-MB-231 cells; type: cell-based, human
Description: 1.1.3 Flow cytometry—Cell cycle distribution was examined using flow cytometry. Briefly, cells were harvested by trypsinization, fixed in 70% ethanol at 4° C. overnight, and then resuspended in PBS. After incubation at 4° C. for overnight, 2×10^6 cells were incubated with in 20 μg/ml propidium iodide (PI) and 2 mg RNaseA for 15 minutes at 37° C. Cells were then examined by BD SLRII cytometer and the results were analyzed using ModFit software (Becton Dickinson, Mountain View, Calif.). Data were expressed as the percentage of cell cycle distribution in the entire population.
1.1.5 Western blotting—Detailed protocols have been described previously and are known in the art. Briefly, cell lysates were prepared by suspending cell pellets in lysis buffer [50 mmol/l Tris-HCl (pH 8.0), 150 mmol/l NaCl, 1% NP40, 0.5% deoxycholate, 0.1% SDS, 1 mg/ml aprotinin, 1 μg/ml leupeptin and 1 mmol/l phenylmethylsulfonyl fluoride]. For nuclear protein extraction, NucBuster™ protein extraction kit was used. Protein concentration was measured using the DC Protein Assay kit (Bio-Rad, Hercules, Calif.). Equal amount of protein (30 μg) was loaded onto a 10% SDS polyacrylamide gel for electrophoresis and then transferred onto a polyvinylidene difluoride membrane (Amersham, Piscataway, N.J.). The membrane was then incubated with primary antibodies for 1 hr at room temperature against E-cadherin (BD Biosciences, Bedford, Mass.), α-catenin, β-catenin, γ-catenin, Id-1, Id-3, EGFR, phosphor-c-jun, phosphor-ATF2, cleaved PARP, vimentin, α-smooth muscle actin, twist (Santa Cruz Biotechnology, Calif.), phosphor-IkB-alpha (Ser32/36), phosphor-IKK alpha (Seri 80)/IKK beta (Ser181), phosphor-SAPK/JNK (Thr183/Tyr185) G9, SAPK/JNK, NF-kB p65 (5A5) (Cell Signaling Technology Inc, Beverly, Mass.), Snail (Abcam). After incubation with appropriate secondary antibodies, signals were visualized by ECL western blotting system (Amersham, Piscataway, N.J.). Expression of β-actin and histone H1 were assessed as an internal loading control for total cell lysate and nuclear protein lysate respectively.
3.1.5 DNA fragmentation assay—After 24 hrs incubation with gamma-T3, 3×10^6 MDA-MB-231 cells were harvested and suspended in lysis buffer [5 mM Tris-HCl (pH 8.0), 20 mM EDTA, and 0.5% (v/v) Triton X-100] for 60 min on ice. Samples were centrifuged, the supernatants were removed and incubated with 5 μl RNase A (10 μg/ml) at 37° C. for 40 min, and 1 ml of anhydrous ethanol was added. Tubes were placed at […] for 20 min and then centrifuged to pellet the DNA. DNA samples were analyzed by electrophoresis at 80 V for 3 hrs on a 2% agarose gel containing ethidium bromide (0.2 μg/ml) and visualized under UV illumination.
3.1.6 Terminal deoxynucleotidyltransferase-mediated deoxyuridine triphosphate nick end-labelling (TUNEL) assay—DNA strand breaks during apoptosis was examined using in situ cell death detection reagent (Roche Applied Science). Briefly, 1×10^6 cells were pretreated with gamma-T3 for 24 hrs. Thereafter, cells were incubated with reaction mixture for 60 min at 37° C. Stained cells were analyzed and captured by fluorescence microscope on glass slide.
3.1.7 Flow cytometry was carried out as described above under item 1.1.3. Matrigel-invasion assay was carried out as described above under item 1.1.4. Western blotting was carried out as described above under item 1.1.5.
3.1.8 Id-1 RT-PCR—Total RNA was isolated using Trizol® reagent according to the manufacturer's protocol (Invitrogen). cDNA was synthesized using the SuperScript™ First Strand Synthesis System (Invitrogen) and was then amplified by PCR with Id-1 specific primers (forward primer, Id1-S, 5′-CTCCAGCACGTCATCGACTA-3′ and reverse primer, Id1-AS,5′-AAC GCA TGC CGC CTC-3′). PCR cycling protocol was as follows: 30 cycles of 10 min at 95° C., 30 s at 95° C., 30 s at 55° C., 1 min at 72° C. and 10 min at 72° C. Glyceraldehyde 3-phosphate dehydrogenase was amplified as an internal control. […]

PC-3 cells = experiment: Spheroid (prostasphere) formation assay, PC-3 cells; type: cell-based; conditions: 5 μg/ml, untreated average 21 per well
Description: 5.1.7 Spheroid formation assay—Spheroid formation assay was performed with a protocol modified from previous study (Folkins C, p3560). Briefly, cells were first trypsinized, washed with 1× PBS and resuspended in DMEM F12 medium. Two hundred cells were added into each well of a 24-well-plate pre-coated with polyHEMA (Sigma, St. Louis, Mo.). Cells will be grown in DMEM/F12 mem (Invitrogen, Carlsbad, Calif.) supplemented with 4 μg/mL insulin (Sigma, St. Louis, Mo.), B27 (Invitrogen, Carlsbad, Calif.), 20 ng/mL EGF (Sigma, St. Louis, Mo.), and 20 ng/mL basic FGF (Invitrogen, Carlsbad, Calif.). Fresh medium with the above supplements was added every day. γ-T3 was added at indicated time points and the number of spheroids was counted at day 14 of the assay or at the end of the treatment. Each experiment was repeated in triplicates and each data point represented the mean and standard derivation.

CC(C)=CCC/C(C)=C/CC/C(C)=C/CCC1(C)CCc2cc(O)c(C)c(C)c2O1 (stereo not drawn) [γ-T3, 7,8-dimethyltocotrienol]
JNK phosphorylation (MDA-MB-231 cells; MDA-MB-231): dose-dependent increase in JNK phosphorylation activities
Src phosphorylation, protein level of Smad1/5/8, LOX and activated Fak (MDA-MB-231 cells; MDA-MB-231): repressed in a dose dependent manner
expression of Snail and Twist (MDA-MB-231 cells; MDA-MB-231): downregulated
nuclear level of NF-κB p65 (MDA-MB-231 cells; MDA-MB-231): suppressed nuclear level of NF-κB p65 in a dose-dependent manner
MAPK/ERK pathway (phosphorylation of Erk1/2, Mek1/2 and Elk1) (MDA-MB-231 cells; MDA-MB-231, 24 hours): activated
activation of pro-apoptotic proteins (cleaved products) (MDA-MB-231 cells; MDA-MB-231, 24 hrs): activation of procaspase 3, 7, 8, 9 as well as PARP
Id1 and Id3 expressions (EGF-R similar) (MDA-MB-231 cells; MDA-MB-231, increasing dosages): significantly suppressed to almost undetectable level
sub-G1 cell population (flow cytometry) (MDA-MB-231 cells; gamma-T3 IC50-90, 24 hrs): induction of sub-G1 cell population
prostasphere formation (PC-3 cells): no prostasphere
